pEC50: −log10 of the molar value.

The test system of the assay is monocytic THP1 cells infected with HIV VSV-G pseudotyped GFP-NEF reporter virus. The assay is described as follows: cells. Format: cell-based. The note with it: Human immunodeficiency virus 1, THP-1, 24 h.

Broadly, the pEC50 is the negative decadic logarithm of the EC50, by convention in mol/L. Low values mean a high EC50, high ones a low EC50. Compound `Cc1cc([C@@H]2C[C@@H]2C#N)cc(C)c1Oc1nc(NC23CC(C#N)(C2)C3)nc2nn(C)cc12` (racemic) [Compound 131, (rac)-3-[[4-[4-[(1R,2S)-2-cyanocyclopropyl]-2,6-dimethyl-phenoxy]-2-methyl-pyrazolo[3,4-d]pyrimidin-6-yl]amino]bicyclo[1.1.1]pentane-1-carbonitrile] had a pEC50 of 5.83.

As to `Cc1cc([C@H]2C[C@@H]2C#N)cc(C)c1Oc1nc(NC23CC(C#N)(C2)C3)nc2nn(C)cc12` (racemic) [Compound 132, (rac)-3-((4-(4-((1S,2S)-2-cyanocyclopropyl)-2,6-dimethylphenoxy)-2-methyl-2H-pyrazolo[3,4-d]pyrimidin-6-yl)amino)bicyclo[1.1.1]pentane-1-carbonitrile], the pEC50 was 6.57. Next, `Cc1cc([C@@H]2C[C@H]2C#N)cc(C)c1Oc1nc(NC23CC(C#N)(C2)C3)nc2nn(C)cc12` (racemic) [Compound 134, (rac)-3-((4-(4-((1R,2R)-2-cyanocyclopropyl)-2,6-dimethylphenoxy)-2-methyl-2H-pyrazolo[3,4-d]pyrimidin-6-yl)amino)bicyclo[1.1.1]pentane-1-carbonitrile]: 6.58; `Cc1cc(/C=C/C#N)cc(C)c1Oc1nc(NC23CC(C#N)(C2)C3)nc2c1C1OCCCN1C2=O` (racemic) [Compound 278, (E)-3-((4-(4-(2-cyanovinyl)-2,6-dimethylphenoxy)-10-oxo-4b,7,8,10-tetrahydro-6H-pyrimido[5′,4′:3,4]pyrrolo[2,1-b][1,3]oxazin-2-yl)amino)bicyclo[1.1.1]pentane-1-carbonitrile]: 7.51; `Cc1cc(/C=C/C#N)cc(C)c1Oc1nc(NC23CC(C#N)(C2)C3)nc2c1[C@@]1(C)O[C@H]3CC[C@H]3N1C2=O` (relative stereo) [Compound 285, 3-(((4bR,5aS,7aR)-4-(4-((E)-2-cyanovinyl)-2,6-dimethylphenoxy)-4b-methyl-9-oxo-4b,5a,6,7,7a,9-hexahydrocyclobuta[4′,5′]oxazolo[3′,2′:1,5]pyrrolo[3,4-d]pyrimidin-2-yl)amino)bicyclo[1.1.1]pentane-1-carbonitrile]: 7.03. For the compound `Cc1cc(/C=C/C#N)cc(C)c1Oc1nc(NC23CC(C#N)(C2)C3)nc2nnn(C(F)F)c12` (single isomer, unassigned) [Compound 11, (E)-3-((7-(4-(2-cyanovinyl)-2,6-dimethylphenoxy)-1-(difluoromethyl)-1H-[1,2,3]triazolo[4,5-d]pyrimidin-5-yl)amino)bicyclo[1.1.1]pentane-1-carbonitrile], the negative-log EC50 (pEC50) is 7.56. Next, `Cc1cc(/C=C/C#N)cc(C)c1Oc1nc(NC23CC(C#N)(C2)C3)nc2nc(C)n(Cc3ccn[nH]3)c12` (single isomer, unassigned) [Compound 18, (E)-3-((7-((1H-pyrazol-5-yl)methyl)-6-(4-(2-cyanovinyl)-2,6-dimethylphenoxy)-8-methyl-7H-purin-2-yl)amino)bicyclo[1.1.1]pentane-1-carbonitrile]: 7.62. Next, `Cc1cc(/C=C/C#N)cc(C)c1Oc1nc(NC23CC(C#N)(C2)C3)nc2c1nc(C)n2Cc1ccn[nH]1` (single isomer, unassigned) [Compound 19, (E)-3-((9-((1H-pyrazol-5-yl)methyl)-6-(4-(2-cyanovinyl)-2,6-dimethylphenoxy)-8-methyl-9H-purin-2-yl)amino)bicyclo[1.1.1]pentane-1-carbonitrile]: 7.04.

In turn, `Cc1cc(/C=C/C#N)cc(C)c1Oc1nc(NC23CC(C#N)(C2)C3)nc2nc(C)n(CC(F)F)c12` (single isomer, unassigned) [Compound 20, (E)-3-((6-(4-(2-cyanovinyl)-2,6-dimethylphenoxy)-7-(2,2-difluoroethyl)-8-methyl-7H-purin-2-yl)amino)bicyclo[1.1.1]pentane-1-carbonitrile] gave a pEC50 of 7.59. For the compound `Cc1cc(/C=C/C#N)cc(C)c1Oc1nc(NC23CC(C#N)(C2)C3)nc2c1nc(C)n2CC(F)F` (single isomer, unassigned) [Compound 21, (E)-3-((6-(4-(2-cyanovinyl)-2,6-dimethylphenoxy)-9-(2,2-difluoroethyl)-8-methyl-9H-purin-2-yl)amino)bicyclo[1.1.1]pentane-1-carbonitrile], the pEC50 is 6.55. Next, `Cc1cc(/C=C/C#N)cc(C)c1Oc1nc(NC23CC(C#N)(C2)C3)nc2nn(C(F)F)nc12` (single isomer, unassigned) [Compound 22, (E)-3-((7-(4-(2-cyanovinyl)-2,6-dimethylphenoxy)-2-(difluoromethyl)-2H-[1,2,3]triazolo[4,5-d]pyrimidin-5-yl)amino)bicyclo[1.1.1]pentane-1-carbonitrile]: 6.59; `Cc1cc(/C=C/C#N)cc(C)c1Oc1nc(NC23CC(C#N)(C2)C3)nc2nn(C)c(Cl)c12` (single isomer, unassigned) [Compound 95, (E)-3-((3-chloro-4-(4-(2-cyanovinyl)-2,6-dimethylphenoxy)-1-methyl-11H-pyrazolo[3,4-d]pyrimidin-6-yl)amino)bicyclo[1.1.1]pentane-1-carbonitrile]: 7.51; `Cc1cc(/C=C/C#N)cc(C)c1Oc1nc(NC23CC(C#N)(C2)C3)nc2c1c(Cl)nn2C` (single isomer, unassigned) [Compound 96, (E)-3-((3-chloro-4-(4-(2-cyanovinyl)-2,6-dimethylphenoxy)-1-methyl-11H-pyrazolo[3,4-d]pyrimidin-6-yl)amino)bicyclo[1.1.1]pentane-1-carbonitrile]: 6.44. Take `Cc1cc([C@H]2C[C@@H]2C#N)cc(C)c1Oc1nc(NC23CC(C#N)(C2)C3)nc2nn(C)cc12` (single isomer, unassigned) [Compound 133]: the pEC50 was 6.29. For the compound `Cc1cc(/C=C/C#N)cc(C)c1Oc1nc(NC23CC(C#N)(C2)C3)nc2nc3n(c12)CCCO3` (single isomer, unassigned) [Compound 182, (E)-3-((4-(4-(2-cyanovinyl)-2,6-dimethylphenoxy)-7,8-dihydro-6H-[1,3]oxazino[2,3-f]purin-2-yl)amino)bicyclo[1.1.1]pentane-1-carbonitrile], the pEC50 is 7.47. The compound `Cc1cc(/C=C/C#N)cc(C)c1Oc1nc(NC23CC(C#N)(C2)C3)nc2c1nc1n2CCCO1` (single isomer, unassigned) [Compound 183, (E)-3-((4-(4-(2-cyanovinyl)-2,6-dimethylphenoxy)-8,9-dihydro-7H-[1,3]oxazino[3,2-e]purin-2-yl)amino)bicyclo[1.1.1]pentane-1-carbonitrile] showed a pEC50 of 7.10.

In turn, `Cc1cc(/C=C/C#N)cc(C)c1Oc1nc(NC23CC(C#N)(C2)C3)nc2nc3n(c12)C[C@@H](F)CO3` (single isomer, unassigned) [Compound 191] had a pEC50 of 7.29. For `Cc1cc(/C=C/C#N)cc(C)c1Oc1nc(NC23CC(C#N)(C2)C3)nc2nc3n(c12)C[C@H](F)CO3` (single isomer, unassigned) [Compound 192], the pEC50 is 7.57. Compound `Cc1cc(/C=C/C#N)cc(C)c1Oc1nc(NC23CC(C#N)(C2)C3)nc2nc3n(c12)C[C@@H](O)CO3` (single isomer, unassigned) [Compound 193] gave a pEC50 of 6.50. Next, `Cc1cc(/C=C/C#N)cc(C)c1Oc1nc(NC23CC(C#N)(C2)C3)nc2nc3n(c12)C[C@H](O)CO3` (single isomer, unassigned) [Compound 194]: 7.30.

For the origin of these results see patent US20250333424A1, “ANTIVIRAL COMPOUNDS” (Gilead Sciences, Inc., priority 2024, published 2025).
